Experimental data from patent publication US5567734A, “Phenyl-substituted alkylcarboguanidides carrying perfluoroalkyl groups, a process for their preparation, their use as a medicament or a diagnostic agent, and a medicament containing them” (priority 1994, dated 1996).
Counter-ions that a name gives are not always drawn.

How the values were obtained:
[1] = target: T1, Na^+ /H^+ exchanger of rabbit erythrocytes (Oryctolagus cuniculus, UniProt P23791); test: Inhibition of the Na^+ /H^+ exchanger of rabbit erythrocytes (Na^+ influx by flame photometry); type: cell-based, rabbit (New Zealand White); settings: pH 7.4, 37° C., hyperosmolar salt/sucrose medium, cholesterol-fed rabbits, read-out: IC 50, Na^+ /H^+ -exchanger inhibition
T1 construct: endogenous in cells; host or cells: erythrocytes in heparinised blood of cholesterol-fed New Zealand White rabbits (Ivanovas)
T1 sequence (P23791 whole entry): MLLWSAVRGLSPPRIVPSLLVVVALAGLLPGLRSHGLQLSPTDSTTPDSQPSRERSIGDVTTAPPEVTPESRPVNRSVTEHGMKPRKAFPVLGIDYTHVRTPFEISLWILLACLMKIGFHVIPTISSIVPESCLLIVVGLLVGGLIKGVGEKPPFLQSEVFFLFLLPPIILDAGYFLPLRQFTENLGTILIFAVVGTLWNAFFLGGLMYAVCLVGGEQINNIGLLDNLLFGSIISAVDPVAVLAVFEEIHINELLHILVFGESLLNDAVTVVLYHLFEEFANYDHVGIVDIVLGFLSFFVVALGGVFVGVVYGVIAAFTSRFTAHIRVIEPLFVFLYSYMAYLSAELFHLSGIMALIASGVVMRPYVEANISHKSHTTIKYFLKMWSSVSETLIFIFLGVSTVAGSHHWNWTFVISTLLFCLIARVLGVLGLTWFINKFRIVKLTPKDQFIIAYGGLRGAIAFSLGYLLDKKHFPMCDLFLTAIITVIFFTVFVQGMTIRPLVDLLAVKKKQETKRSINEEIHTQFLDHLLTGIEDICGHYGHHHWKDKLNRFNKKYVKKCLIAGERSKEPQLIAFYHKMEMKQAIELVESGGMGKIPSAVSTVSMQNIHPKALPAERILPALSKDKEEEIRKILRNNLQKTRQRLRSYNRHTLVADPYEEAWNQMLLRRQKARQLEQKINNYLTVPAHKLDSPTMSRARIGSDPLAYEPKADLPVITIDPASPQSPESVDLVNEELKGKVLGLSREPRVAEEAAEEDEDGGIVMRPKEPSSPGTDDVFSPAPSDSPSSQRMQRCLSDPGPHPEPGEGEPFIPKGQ
Text: Inhibition of the Na^+ /H^+ exchanger of rabbit erythrocytes:
New Zealand White rabbits (Ivanovas) were given a standard diet containing 2% cholesterol for 6 weeks in order to activate Na^+ /H^+ exchange and thus render it possible to determine the Na^+ influx into the erythrocytes via Na^+ /H^+ exchange by flame photometry. The blood was removed from the aural arteries and rendered incoagulable using 25 IU/ml potassium heparin. A portion of each sample was used for determining, in duplicate, the hematocrit by centrifugation. Aliquots of in each case 100 μl were used for measuring the initial content of Na^+ in the erythrocytes.
In order to determine the amiloride-sensitive sodium influx, 100 μl of each blood sample were incubated, at pH 7.4 and 37° C., in in each case 5 ml of a hyperosmolar salt/sucrose medium (mmol/l:140 NaCl, 3 KCl, 150 sucrose, 0.1 ouabain, 20 tris(hydroxymethyl)aminomethane). After that, the erythrocytes were washed three times with ice-cold MgCl2 /ouabain solution (mmol/l: 112 MgCl2, 0.1 ouabain), and haemolyzed in 2.0 ml of distilled water. The intracellular content of sodium was determined by flame photometry.
The net influx of Na^+ was calculated from the difference between the initial sodium values and the sodium content of the erythrocytes after incubation. The amiloride-inhibitable sodium influx was given by the difference in the sodium content of the erythrocytes after incubation with and without 3×10^-4 mol/l amiloride. The same procedure was employed for the compounds according to the invention.

rat hearts = settings: isolated rat hearts; cited from earlier work
[2] = test system: disturbances of cardiac rhythm; settings: literature; cited from earlier work

CC(Cc1cccc(C(F)(F)F)c1)C(=O)N=C(N)N (racemic) [Example 5, 2-Methyl-3-(3-trifluoromethylphenyl)propionoguanidide hydrochloride]
IC50 [1]: 0.05 µM

NC(N)=NC(=O)CCc1cccc(C(F)(F)F)c1 [Example 1, 3-(3-Trifluoromethylphenyl)propionoguanidide]
IC50 [1]: 0.6 µM

NC(N)=NC(=O)CCc1ccccc1C(F)(F)F [Example 2, 3-(2-Trifluoromethylphenyl)propionoguanidide]
IC50 [1]: 0.5 µM

NC(N)=NC(=O)CCc1cccc(OC(F)(F)F)c1 [Example 3, 3-(3-Trifluoromethoxyphenyl)propionoguanidide hydrochloride]
IC50 [1]: 0.7 µM

N=C(N)NC(=O)c1nc(Cl)c(N)nc1N [amiloride]
suppression of artificially induced ventricular fibrillation (rat hearts): completely suppress | antiarrhythmic effect [2]: only weakly expressed | side effects when treating disturbances of cardiac rhythm [2]: hypotensive and saluretic effects

CCN(c1nc(N)c(C(=O)NC(=N)N)nc1Cl)C(C)C [ethylisopropyl amiloride, Ethylisopropyl amiloride]
potency relative to amiloride, ventricular fibrillation (rat hearts): even more potent than amiloride
